Consider 3 compounds from patent US5795857A, “Mimetic insect pyrokinin analogs for insect control” (The United States of America as represented by the …, priority 1996, dated 1998).

“Also recorded” adds a separate entry of the source. Residues, ends and D or L forms follow the SMILES beside them. *: point of attachment. Hexanoyl(6-Ph) = O=C(CCCCCc1ccccc1)*

For series [1] the following is noted: in vivo; cited from earlier work.
The subject of series [2] is virgin females of Heliothis virescens. Nature of the series: Pheromonotropic assay (topical application). The series is classed as in vivo. The procedure:
The amphiphilic carboranyl analog Cbe--Thr--Pro--Arg--Leu--NH2 was dissolved in water and solutions at concentrations of 5, 10, 25, 60, and 200 pmol/μl were prepared. The cuticular scales along the lateral side of the abdomen were removed with a 1 ml plastic pipet tip attached to house vacuum with a rubber hose. A low vacuum was applied to the apparatus and the pipet tip was gently passed over the cuticle until the scales were drawn by suction. After the scales were removed, 1 μl of peptide solution was applied to the surface of the cuticle and smoothed evenly over the prepared surface. […]
Pupae of Heliothis virescens were obtained from a laboratory colony maintained at the Insect Attractants Behavior and Basic Biology Research Laboratory, USDA-ARS, Gainesville, Fla. The pupae were separated by sex and the females were held in 4-1 cages. Cages were inspected daily for newly eclosed adults which were transferred to new cages and provided with cotton wicks soaked with a 5% sucrose solution. The insects were held at 25°[…] C. and 65%±3% relative humidity with a 12:12 (L:D) photoperiod. Virgin females were used for bioassays 2 and 3 days after eclosion during the 7th-8th hour of the photophase when little or no pheromone is present in the gland (Teal et al., 1993, Can. Entomol., 153:355-366). The cuticular scales were removed from the lateral side of the abdomen using a plastic pipet tip attached to house vacuum using a rubber hose. A low vacuum was applied and the pipet tip was passed gently over the cuticle until the scales were drawn off by suction. Insects were returned to the incubator for 24 h after the scales were removed for most experiments. However, insects were not given a recovery period in studies in which peptides were applied in DMSO (see below).
In initial studies we used dimethyl sulfoxide (DMSO) as a carrier to deliver Hez--PBAN or [6--Pha--Ala^0 ]Lom--MT--II for topical applications. […] We also assessed different carrier solvents for their ability to deliver these two peptides. Peptides were dissolved at a concentration of 500 pmol/μl in: DMSO, water, or 80% acetonitrile:20% water. Solutions were applied to the descaled abdomen in 1 μl of solvent as above. The insects were allowed to incubate for 1 h prior to excision and extraction of the pheromone gland. Extracts were analyzed for the amount of pheromone as above.
The use of water as a carrier for [6--Pha--Ala^0 ]Lom--MT--II was also assessed in dose response and temporal activity studies. For dose response studies [6--Pha--Ala^0 ]Lom--MT--II was dissolved in water at concentrations of 5, 10, 25, 50, 75, 100, 250, 500, 750 and 1000 pmol/μl. Insects were incubated for 60 min after application of 1 μl of solution to the descaled abdomen. In temporal activity studies a 100 pmol/μl dose was selected. For these experiments insects were incubated for periods of 15, 30, 60, 120, or 180 min after application of 1 μl of solution to the descaled abdomen. The ability of the parent peptide, Lom--MT--II, to stimulate pheromone production when applied topically in water was assessed by applying doses of 50, 100, 250 and 500 pmol to the abdomen. Control treatments for this experiment included insects treated with only water and females treated by topical application of 100 pmol of [6--Pha--Ala^0 ]Lom--MT--II. After incubation the sex pheromone glands were excised, extracted and analyzed for the amount of pheromone.

For series [3] the test system is unchanged. Kind of series: Pheromonotropic assay (injection). It is filed as in vivo. The conditions noted are these: 0.06-200 pmol, 60 min after injection, FIG. 5. On the procedure:
Pupae of H. virescens were obtained from a laboratory colony maintained at the Insect Attractants, Behavior and Basic Biology Research Laboratory, USDA-ARS, in Gainesville, Fla. The pupae were separated by sex and the males were discarded. After eclosion, the females were held in 4-1 cages and provided with cotton wicks soaked with 5% sucrose solution. The insects were held at 25°±2° C, 65±3% relative humidity with a 12:12 (L:D) photoperiod. Virgin females were used for bioassays 2 and 3 days after eclosion during the 7th-8th hour of the photophase when endogenous levels of pheromone are very low (Abernathy, 1995, Regulation of sex pheromone production and oviposition in virgin females of noctuid moths, doctoral dissertation, University of Florida, Gainesville, Fla., pp. 1-107).
Pheromone biosynthesis neuropeptide from H. zea (Hez--PBAN) and the carboranyl pseudopeptide Cbe--Thr--Pro--Arg--Leu--NH2 were dissolved in physiological saline (Christensen et al., 1991, Proc. Natl. Acad. Sci. USA, 88:4971-4975). Female H. virescens insects were injected through the side of the third abdominal segment using a 26-ga needle with 20 μl of the above solutions. Each female received a dose of 0.01, 0.03, 0.1, 0.3, 1, 3, 10, 30, 100 or 300 pmol. After 1 h of incubation, the terminal abdominal segments, which contain the pheromone gland, were excised and placed in 10 μl of hexane containing 10 ng each of internal standards (octadecane and nonadecane) used for quantitation and calculation of relative retention indices. The pheromone gland extracts were analyzed for the amount of (Z)-11-hexadecenal (Z11-16:AL), the major sex pheromone component of H. virescens (Klun et al., 1980, J. Chem. Ecol., 6:165-175) by capillary gas chromatography. Hewlett-Packard 5890 gas chromatographs were equipped with splitless injectors, flame ionization detectors, and 30 m×0.25 mm (i.d.) fused silica "SPB 10" (polar) or "SPB1" (apolar) columns (Supelco). Conditions of chromatography were as follows: initial temperature=60° C.; injector operated in the splitless mode for 0.5 min; oven temperature increased by 30° C./min after 1 min; final temperature=190° C. ("SPB10") or 200° C. ("SPB1"); helium carrier gas at a linear flow velocity of 18 cm/s. A Nelson Analytical 3000° acquisition system (Cupertino, Calif.) was used to collect and analyze the data (Teal et al., 1989, Proc. Natl. Acad. Sci. USA, 86:2488-2492).
After the dose response of Hez--PBAN was completed, the […] dose was chosen to use for comparison with the carboranyl pseudopeptide assayed here. Insects were also injected with saline alone as a control. The pseudopeptide was prepared by dilution with saline as described above. Based on the dose-response for the activity of Hez--PBAN, […] were chosen to assess the pheromonotropic activity of the carboranyl pseudopeptide. Females were injected with 20 μl containing 0.01, 0.03, 0.1, 0.3, 1, 3, 10, 30, 100, or 300 pmol. Each bioassay consisted of one dose of several different peptides along with saline and Hez--PBAN controls. The amount of pheromone present in extracts of the pheromone glands of females from each group was compared with that produced by females injected with 5 pmol of Hez--PBAN during that particular bioassay. After all the bioassays were completed, the amount of pheromone produced by each insect was calculated as a percentage of the amount of pheromone produced by females treated with Hez--PBAN. Data were analyzed using one-way ANOVA and t-test with "STATVIEW" software. Variability was reported as SEM.
The pheromonotropic activity of Hez--PBAN, Lom--MT--II and [6--Pha--Ala^0 ]Lom--MT--II was first determined by a series of injection bioassays. Peptides were dissolved in physiological saline (Christensen et al., ibid) and diluted to concentrations of 0.003, 0.01, 0.03, 0.1, 0.3, 1.0, 3.0 and 10.0 pmol/μl. Insects were injected through the side of the 3rd abdominal segment using a 26 ga. needle with 20 μl of the above solutions. […]

In series [4] the test system is isolated cockroach (Leucophaea maderae) hindgut. Kind of series: Cockroach myotropic bioassay (isolated hindgut). It is filed as cell-based. The conditions noted are these: isolated hindgut, FIG. 2; listed as LPK. The procedure:
Leucophaea maderae cockroaches were taken from stock colonies maintained at 27° C. and fed dry dog food ad lib. Cockroach hindguts, free of central nervous system (CNS) tissue, were dissected, immersed in saline, and prepared for recording of myogenic activity as previously described (Holman et al., 1991, ibid). Threshold concentrations were determined for each analogue by adding a known quantity of peptide (dissolved in 0.5 ml bioassay saline) to the bioassay chamber containing the hindgut and observing the response on a Gould 2200S oscillograph recorder. The quantity of the peptide analogues was calculated from the values obtained for Phe and/or Leu in the amino acid analysis. The threshold concentration was defined as the minimum concentration of peptide in the chamber required to evoke an observable change in the frequency (50%) or amplitude of contractions (5%) within 1 min and sustained for 3 min. Threshold concentrations were obtained from five cockroach hindguts on 5 consecutive days for each peptide. Quantitative data for dose-response plots were obtained as previously described (Holman et al., 1991, ibid).

The next series has as its system corn earworm moth H. zea. To be noted: cited from earlier work.
Series [5] relates to isolated cockroach (Leucophaea maderae) hindgut. To be noted: values printed with reference numbers; cited from earlier work.

On to proctolin, for which the “fate of ingested peptide in the gut” value in series [1] is “rendered inactive in the gut”.
On to `CC(C)C[C@H](NC(=O)[C@H](CCCNC(=N)N)NC(=O)[C@@H]1CCCN1C(=O)[C@@H](NC(=O)[C@H](Cc1ccccc1)NC(=O)[C@H](CC(=O)O)NC(=O)CNC(=O)[C@H](CCC(=O)O)NC(=O)[C@H](C)NC(=O)CCCCCc1ccccc1)[C@@H](C)O)C(N)=O` [[6--Pha--Ala^0]Lom--MT--II] ({Hexanoyl(6-Ph)}-AEGDFTPRL-NH2), for which, in series [2] (100 pmol in water, FIG. 9), the “time after application at which gland extracts contained significant amounts of pheromone” value is listed as at most 15 min and the “time of maximal activity after application” value was 60 min. Also, the “pheromone production, topical 500 pmol/female in 80% acetonitrile” value in series [2] (80% acetonitrile in water, 60 min, FIG. 7) is “significant amounts of pheromone; also recorded: induced the production of pheromone”. For the same compound, the “response to topical application of 5 and 10 pmol doses in DMSO” value in series [2] (DMSO carrier, 60 min, FIG. 6) was “produced pheromone”. Besides, the “amount of pheromone at 100 to 1000 pmol/female, topical in DMSO” value in series [2] (DMSO carrier, FIG. 6) is given as “equivalent amounts of pheromone”. The “pheromone production after topical application in DMSO” value in series [2] (DMSO carrier, descaled cuticle) is “produced pheromone; also recorded: effective in stimulating pheromone production”. Besides, the “pheromone production, topical 500 pmol/female in DMSO” value in series [2] (DMSO, 60 min, FIG. 7) is “equivalent amounts of pheromone”. In series [2] (topically applied), the “concentration giving maximal pheromone stimulation, topical application” value was found to be 100 picomoles/insect. For the same compound, in series [2] (water carrier, 60 min, FIG. 8), the “dose up to which activity increased in a linear fashion (100-1000 pmol not different)” value is 100 pmol and the “doses stimulating significantly more pheromone than just water, topical in water” value was at least 10 pmol. Moreover, the “pheromone production, topical 500 pmol/female in water” value in series [2] (water, 60 min, FIG. 7) is given as “significant amounts of pheromone”. Also, the “pheromonotropic activity of injected peptide, compared” value in series [3] is recorded as “reduced the activity, compared to Lom--MT--II, at doses up to 6 pmol; also recorded: equivalent to Hez--PBAN at all other doses”. Besides, the “pheromonotropic activity of injected peptide, compared” value in series [3] (listed as [6--Pha--Ala^0]Lom--MT--II) was “pheromonotropic activity equivalent to Hez--PBAN”.
For the compound “pQTSPhe--Thr--Pro--Arg--Leu--NH2 (pQTS-FTPRL-NH2) [octapeptide leucopyrokinin of the cockroach Leucophaea maderae, reference compound]”, in series [4], the “reversibility of myostimulatory response by saline rinse” value is recorded as “immediately reversed by a saline rinse; also recorded: immediately vanished following a saline rinse; also recorded: subsides immediately following a saline rinse”. In the series with corn earworm moth H. zea (data from H. zea), the “Maximal Response via injection (dose)” value is 70 pmol. In the series on corn earworm moth H. zea (data from the related corn earworm moth H. zea), the “ED50, pheromone production via injection” value was 5 pmol. Besides, the “Threshold Concentration, myostimulation of the isolated cockroach hindgut” value in series [5] was 650 pM.
